Test [1] concerns L1210. Put plainly: The compound was tested in vitro for the inhibition of L1210 cell growth in the presence of thymidine. The class given is functional, Mus musculus. The arrangement: concentration or dose not given beside the values.
The test system of test [2] is L1210. Briefly: The compound was tested in vitro for the inhibition of L1210 cell growth in culture. The following applies: Mus musculus. The class given is functional, cell-based.
Another test addresses Thymidylate synthase (Mus musculus, UniProt P07607). Put plainly: Inhibition of thymidylate synthase from L1210 cells. The class given is cell-based.

Six compounds from ChEMBL document CHEMBL1126239, “Quinazoline antifolate thymidylate synthase inhibitors: difluoro-substituted benzene ring analogues” (J Med Chem, 1992) can be followed below.

Chain of Thymidylate synthase (P07607 whole entry): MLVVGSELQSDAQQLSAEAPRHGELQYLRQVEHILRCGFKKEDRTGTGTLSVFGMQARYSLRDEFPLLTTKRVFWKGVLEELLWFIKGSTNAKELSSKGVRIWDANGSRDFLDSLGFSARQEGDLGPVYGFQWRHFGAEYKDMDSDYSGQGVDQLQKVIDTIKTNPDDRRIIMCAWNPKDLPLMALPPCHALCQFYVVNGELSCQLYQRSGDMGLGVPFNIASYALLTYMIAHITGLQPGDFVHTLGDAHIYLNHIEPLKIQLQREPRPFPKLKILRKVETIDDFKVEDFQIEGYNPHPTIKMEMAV

Regarding `C#CCN(Cc1ccc2nc(C)nc(O)c2c1)c1cc(F)c(C(=O)N[C@@H](CCC(=O)O)C(=O)O)cc1F`, the Control in the test on L1210 [1] came out at 95%. For the same compound, the 50% inhibitory concentration (IC50) in the test on L1210 [2] worked out at 27 nM; against Thymidylate synthase, 600 nM.
In the same order, the values of `C#CCN(Cc1ccc2nc(C)nc(O)c2c1)c1ccc(C(=O)N[C@@H](CCC(=O)O)C(=O)O)c(F)c1F` are 94%, 280 nM and 1700 nM.
`Cc1nc(O)c2cc(CN(C)c3ccc(C(=O)N[C@@H](CCC(=O)O)C(=O)O)c(F)c3F)ccc2n1`: the IC50 turned out to be 140 nM in the test with L1210 [2] and 1000 nM against Thymidylate synthase.
For the compound `Cc1nc(O)c2cc(CN(C)c3cc(F)c(C(=O)N[C@@H](CCC(=O)O)C(=O)O)c(F)c3)ccc2n1`, the Control with L1210 [1] turned out to be 90%. The IC50 turned out to be 50 nM in the test with L1210 [2] and 950 nM against Thymidylate synthase.
The matching figures for `Cc1nc(O)c2cc(CN(C)c3cc(F)c(C(=O)N[C@@H](CCC(=O)O)C(=O)O)cc3F)ccc2n1`: 94%, 75 nM and 1100 nM.
With `C#CCN(Cc1ccc2nc(C)nc(O)c2c1)c1cc(F)c(C(=O)N[C@@H](CCC(=O)O)C(=O)O)c(F)c1`, in the test with L1210 [1], the Control is recorded as 93%. Moreover, the IC50 in the test with L1210 [2] turned out to be 62 nM; at Thymidylate synthase, 80 nM.

Broadly, the IC50 is the midpoint of a concentration-inhibition curve.
